Reference: publication PMC5711494, “Sterol methyltransferase a target for anti-amoeba therapy: towards transition state analog and suicide substrate drug design” (Journal of Lipid Research, 2017)

How the values were obtained:
[1] = system: Acanthamoeba castellanii trophozoites (strain ATCC 30010); assay: Ac trophozoite growth inhibition and minimum amoebicidal concentration (trypan blue exclusion); assay type: cell-based; details: 48 h incubation
Experimental: Ac strain ATCC 30010 was inoculated (1 × 10^4 cells/ml) into tissue culture T-25 ml flasks, prepared with ATTC media 712 and cultured axenically in 5 ml medium at 25°C. Continuous cultures populated by trophozoites ([…]; the remaining cells were cysts) was maintained by sub-culturing 4–5 day growth arrested cells (1 × 10^6 cells/ml) into fresh medium. Steroidal inhibitor and azole susceptibility assays were performed in 24-well (4 × 6) microtiter plates (3 ml total). Trophozoite assay conditions and preparation of stock solutions made to 1 μg/10 μl and 1 μg/100 μl in DMSO through serial dilution to achieve final inhibitor concentrations of 64, 32, 16, 8, 4, 2, 1, 0.5, 0.25, 0.125, 0.0625, and 0.03125 µg/ml in 1% DMSO as reported previously for voriconazole incubated with Ac ([25]). Growth curves to evaluate treated trophozoites were initiated with 1 × 10^6 cells/ml and incubated for 48 h. Cell number was calculated with the use of a hemocytometer. The percentage of viable trophozoites following exposure to different concentrations of inhibitors was determined by the standard trypan blue exclusion method. Cells stained blue were considered nonviable. […] The IC50 of inhibitors against trophozoite growth was evaluated using GraphPad Prism with default setting (GraphPad Software Inc., CA).

[2] = target: Ac28-SMT (sterol 28-methyltransferase, SMT2) (Acanthamoeba castellanii, UniProt L8GKC5); assay: Inhibition of recombinant Ac28-SMT assayed with native substrate 24(28)-methylene lophenol and [methyl-3H3]SAM; assay type: biochemical
Experimental: The SMT constructs were transformed into competent BL21(DE3) cells and transformants selected against 100 µg/ml ampicillin. Expression of the SMT constructs and partial purification of the recombinant proteins followed the procedure described previously ([19]). Briefly, a single colony for 24-SMT and 28-SMT were grown overnight in an orbital shaker (250–300 rpm) at 37°C in Luria broth containing ampicillin and then reinoculated in fresh medium at 1 in 10 dilution. […] In one tube, cells were induced by addition of isopropyl thio-galactoside at a final concentration of 1 mM and in the other tube, were un-induced. Cells were harvested 2 and 4 h after induction and an equal number of cells (as calculated by OD @600 nm) from induced (+) and un-induced (−) cultures were boiled with 1X Laemmli’s buffer and analyzed by SDS-PAGE (12%). […] Total protein concentrations were determined by Bradford dye-binding procedure with bovine γ-globulin as standard. […] Incubation mixtures were saponified with methanolic potassium hydroxide and extracted with hexane (3 × 1 ml) and concentrated to dryness providing the nonsaponifiable lipid fraction; radioactivity was determined by liquid scintillation counting. […] Controls containing radioactive SAM and no sterol used to background subtract radioactivity in these treatments was less than 500 dpm. […]

Ac24-SMT = assay: Time-dependent inactivation of Ac24-SMT (Kitz and Wilson plot); assay type: biochemical, Acanthamoeba castellanii
Experimental: To show time-dependent inactivation, experiments were performed with a 100,000 g supernatant fraction containing the recombinant Ac24-SMT in two major steps. First, a preincubation experiment was established; to a 9 ml test tube containing DHL at the test concentrations (varied between 0 and 20 µM), 2.4 mg of total protein (ca. 160 µg SMT), 1.5 ml buffer, and a fixed concentration of SAM (100 µM) were added. The incubation was allowed to incubate for up to 20 min at 35°C. Second, at the time indicated, aliquots (20 µl) of the preincubation preparation were placed in a precooled (dry ice-ethanol) test tube to prevent catalysis. The frozen samples were then individually thawed and filtered three times with phosphate buffer to remove excess unbound inhibitor using Amicon ultracentrifugation filters. The remaining enzyme activity in each sample was determined by assaying each at saturating cycloartenol concentration (100 µM) and [methyl-^3H3] SAM (100 µM; 0.6 µC) under standard assay conditions for 1 h. The logarithmic percentage of remaining enzyme activity was plotted against the incubation time of the enzyme-inhibitor mixture to determine the half-life (T1/2) of inactivation. […] The point of intersection with the ordinate is the T1/2 at saturation from which the kinact can be calculated whereas the intercept along the X-axis gives the −1/Ki from which the Ki can be calculated.

Sequence of Ac28-SMT (sterol 28-methyltransferase, SMT2) (L8GKC5 entry or part of it): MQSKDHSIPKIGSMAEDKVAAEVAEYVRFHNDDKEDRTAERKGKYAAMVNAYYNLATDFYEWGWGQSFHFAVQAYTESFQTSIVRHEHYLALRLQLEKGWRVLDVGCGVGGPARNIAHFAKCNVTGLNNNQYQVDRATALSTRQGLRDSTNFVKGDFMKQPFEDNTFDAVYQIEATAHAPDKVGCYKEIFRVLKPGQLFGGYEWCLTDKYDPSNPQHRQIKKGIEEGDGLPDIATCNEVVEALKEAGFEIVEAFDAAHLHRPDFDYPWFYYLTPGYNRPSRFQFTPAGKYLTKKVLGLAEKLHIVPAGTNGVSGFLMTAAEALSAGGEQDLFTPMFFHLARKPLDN

Structure (SMILES): CC(CCC=C1CC1)C1CC[C@@]2(C)C3=C(CCC12C)C1(C)CCC(O)C(C)(C)C1CC3 (stereo partly drawn) [DHL, 26,27-dehydrolanosterol]
- MAC (complete inhibition of growth, minimum amoebicidal concentration) [1]: 15 µM
- IC50 ([1]; Acanthamoeba castellanii, ATCC30010, Ac trophozoites): 6 µM
- kinact/Ki against 28-SMT [2]: effectively zero
- Ki ([2]; read-out: Ki against 28-SMT (competitive inhibitor), assayed with natural substrate): 54 µM
- partition ratio (kcat/kinact) (Ac24-SMT; C26 methyl monol product per inactivation event, 24-SMT): ~1
- kinact (maximum rate of inactivation) of Ac24-SMT (Ac24-SMT; preincubation with SAM 100 µM, 35°C): ~0.4 min⁻¹
